From patent US20240424053A1, “METHODS AND COMPOSITIONS FOR PROVIDING MYOCARDIAL PROTECTION AND TREATING MYOCARDIAL STRESS AND FIBROSIS” (Tufts Medical Center, Inc., priority 2021, published 2024)
Where a SMILES comes first, the peptide text is derived from it. The star is where a group is joined. Palmitoyl = CCCCCCCCCCCCCCCC(=O)*

Key:
[1] = target: T1, PAR1 (Mus musculus, UniProt P30558); experiment: myocardial ischemia (30 min left coronary artery occlusion) / 2 h reperfusion in mice; assay type: in vivo; details: 10 mg/kg sc before ischemia
T1 construct: endogenous in cells; host or cells: male C57BL/6N mice, in vivo
T1 sequence (P30558 22-430): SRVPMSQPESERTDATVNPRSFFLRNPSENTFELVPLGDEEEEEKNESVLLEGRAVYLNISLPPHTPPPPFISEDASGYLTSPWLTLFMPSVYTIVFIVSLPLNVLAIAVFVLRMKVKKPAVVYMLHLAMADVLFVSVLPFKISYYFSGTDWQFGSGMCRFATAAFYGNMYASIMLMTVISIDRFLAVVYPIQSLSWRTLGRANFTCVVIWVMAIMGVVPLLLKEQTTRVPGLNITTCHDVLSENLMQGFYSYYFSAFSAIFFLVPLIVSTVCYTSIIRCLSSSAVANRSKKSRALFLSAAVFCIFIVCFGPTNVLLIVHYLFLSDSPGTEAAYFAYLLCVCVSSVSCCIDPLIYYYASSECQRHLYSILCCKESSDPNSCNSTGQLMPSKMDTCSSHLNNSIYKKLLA
Protocol: FIGS. 1A-E show protection against cardiac myocardial injury by PZ-128 in mice. […] Images were quantified using ImageJ and adjusted by weight of each cardiac slice. Data are shown as mean±SD and analyzed by two-tailed Student's t-test: **p<0.01, ***p<0.001.
A role of PAR1 in directly mediating cardiac ischemic myonecrosis—independent of established platelet-dependent effects (Strande et al., Basic Res. Cardiol. 102(4):350-358, 2007)—was also examined. […] Mice (n=7) were treated with vehicle or 10 mg/kg PZ-128 (subcutaneous; sc) just prior to ischemic injury. As shown in FIG. 1a-d, PZ-128-treated mice had 51-62% reductions in mean cardiac Infarct Area (p<0.01), Area At Risk (p<0.01), and Total Ischemic Area (p<0.0001) compared to vehicle-treated mice. […] Using echocardiography after 3 days of reperfusion, there was a significant increase in left ventricular mass (p<0.05) in vehicle compared to PZ-128 treated cohorts, with no difference in left ventricular mass between baseline and 3 days in the PZ-128 cohort (FIG. 2). […] Previous pharmacokinetic studies of subcutaneously administered PZ-128 in mice were the basis of this 10 mg/kg dose in mice (Cisowski et al., Am. J. Pathol. 179(1):513-523, 2011), selected to match the 0.3-0.5 mg/kg doses administered in humans.
Eight-week male C57BL/6N mice were vehicle (20% DMSO) or 10 mg/kg PZ-128 1 h before cardiac surgery (n=7 per group). The left coronary artery was occluded for 30 min with a ligature left in place during reperfusion. Blood flow was restored for 2 h, then the left coronary artery was reoccluded, and 5% Evans blue dye was injected via the aorta. Hearts were frozen and sectioned in OTC, before incubation in TTC for 10 min at 37° C. (a) Sections were digitally scanned and the area of white (b—Infarct area=1), red (c—Area at Risk=AAR), white+red (d—total Ischemic area), and blue (e—Reperfusion area=R) quantified using ImageJ and adjusted by weight of each cardiac slice. Data are shown as mean±SD and analyzed by two-tailed Student's t-test: **p<0.01, ***p<0.001.

[2] = target: T2, PAR1 (Homo sapiens, UniProt P25116); details: subjects with coronary artery disease; cited from earlier work
T2 construct: delivered intravenously in 100 patients with coronary artery disease (CAD) and acute coronary syndrome (ACS) undergoing cardiac catheterization; endogenous in cells; host or cells: patients of the TRIP-PCI trial (platelets ex vivo; whole body in vivo)
T2 sequence (P25116 22-425): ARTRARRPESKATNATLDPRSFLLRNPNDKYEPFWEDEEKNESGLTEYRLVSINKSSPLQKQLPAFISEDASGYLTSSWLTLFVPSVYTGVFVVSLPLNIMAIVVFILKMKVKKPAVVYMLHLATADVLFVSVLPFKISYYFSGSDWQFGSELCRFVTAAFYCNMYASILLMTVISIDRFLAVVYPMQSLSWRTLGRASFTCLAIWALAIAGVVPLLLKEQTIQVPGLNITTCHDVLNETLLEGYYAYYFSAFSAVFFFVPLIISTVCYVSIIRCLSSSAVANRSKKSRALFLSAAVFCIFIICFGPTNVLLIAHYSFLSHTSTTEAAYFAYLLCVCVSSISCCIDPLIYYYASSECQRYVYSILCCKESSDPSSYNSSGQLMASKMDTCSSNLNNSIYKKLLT

## CCCCCCCCCCCCCCCC(=O)N[C@@H](CCCCN)C(=O)N[C@@H](CCCCN)C(=O)N[C@@H](CO)C(=O)N[C@@H](CCCNC(=N)N)C(=O)N[C@@H](C)C(=O)N[C@@H](CC(C)C)C(=O)N[C@@H](Cc1ccccc1)C(N)=O [PZ-128, Palmitate-KKSRALF-NH2] (Palmitoyl-KKSRALF-NH2)
[1]; n=7, p<0.0001
  reduction in mean Total Ischemic Area vs vehicle: 51-62%
[1]; n=7, p<0.001
  increase in total area of cardiac muscle able to be reperfused vs vehicle: 50%
[1]; n=7, p<0.01
  reduction in mean Area At Risk vs vehicle: 51-62%
  reduction in mean cardiac Infarct Area vs vehicle: 51-62%
[2]
  platelet activation and hemostasis in phase 1: suppresses platelet activation without effects on hemostasis
